The assay has as its system iNKT. The assay is described as follows: Antigenic activity in mouse iNKT cells co-cultured with N38-2C12 cells assessed as potentiation of glycolipid loaded bone marrow dendritic cells-induced IL-2 secretion by ELISA. It is filed as functional, cell-based. (An ELISA detects its analyte on a solid surface through an enzyme-linked reagent.)

Each structure is given as a SMILES string. Activity calls are given as the source filed them. The calls are words filed in the database; no cut-off is given here.

As for `CCCCCCCCCCCCCCCCCCCCCCCCCC(=O)N[C@@H](CO[C@H]1O[C@H](Cn2ccnn2)[C@H](O)[C@H](O)[C@H]1O)[C@H](O)[C@H](O)CCCCCCCCCCCCCC`, the outcome was Active.
Then `CCCCCCCCCCCCCCCCCCCCCCCCCC(=O)N[C@@H](CO[C@H]1O[C@H](Cn2cc(-c3ccccc3)nn2)[C@H](O)[C@H](O)[C@H]1O)[C@H](O)[C@H](O)CCCCCCCCCCCCCC`, with “Active”; and `CCCCCCCCCCCCCCCCCCCCCCCCCC(=O)N[C@@H](CO[C@H]1O[C@H](Cn2cc(CCCC)nn2)[C@H](O)[C@H](O)[C@H]1O)[C@H](O)[C@H](O)CCCCCCCCCCCCCC`, with “Active”; and `CCCCCCCCCCCCCCCCCCCCCCCCCC(=O)N[C@@H](CO[C@H]1O[C@H](Cn2cc(Cc3ccccc3)nn2)[C@H](O)[C@H](O)[C@H]1O)[C@H](O)[C@H](O)CCCCCCCCCCCCCC`, with “Active”.
The result for `CCCCCCCCCCCCCCCCCCCCCCCCCC(=O)N[C@@H](CO[C@H]1O[C@H](Cn2cc(CCc3ccccc3)nn2)[C@H](O)[C@H](O)[C@H]1O)[C@H](O)[C@H](O)CCCCCCCCCCCCCC` reads “Active”; that for `CCCCCCCCCCCCCCCCCCCCCCCCCC(=O)N[C@@H](CO[C@H]1O[C@H](Cn2cc(CCCc3ccccc3)nn2)[C@H](O)[C@H](O)[C@H]1O)[C@H](O)[C@H](O)CCCCCCCCCCCCCC`, “Active”.

Values taken from ChEMBL document CHEMBL2203024, “Synthesis of 6"-triazole-substituted α-GalCer analogues as potent iNKT cell stimulating ligands” (Bioorg Med Chem, 2012).
